*1 amine or outer side, *2 acyl side, *3 side chain or, on linkers, in order; H or OH if unused. Where a SMILES comes first, the peptide text is derived from it. Side-chain parts run from the residue outwards. [ ]: non-standard residue; d: D form. The star is where a group is joined. C20 diacid = O=C(O)CCCCCCCCCCCCCCCCCCC(=O)*; C18 diacid = O=C(O)CCCCCCCCCCCCCCCCC(=O)*; γGlu = O=C(O)[C@H](CCC(=O)[*:2])N[*:1]; AEEA = NCCOCCOCC(=O)O; Aib = CC(C)(N)C(=O)O
Legend:
physchem = format: physicochemical; settings: for Soluble amount: 24 h, pH 7.4; for solubility at 24 h: pH 7.4, Soluble amount
Method: Prior to the solubility measurement of a peptide batch, its purity was determined through UHPLC/MS. […] Therefore, solutions from solid samples were prepared in a buffer system with a concentration of 10 mg/ml compound based on the previously determined % purity: Solubility buffer system A) 100 mM phosphate buffer pH 7.4 […] Solubility buffer system C) 100 mM phosphate buffer pH 7.4, 2.7 mg/ml m-cresol UHPLC-UV was performed after 1 h of gentle agitation and storage at 5° C. over night (24 h) from the supernatant, which was obtained after 15 min of centrifugation at 2500 RCF (relative centrifugal acceleration). […] The different UV extinction coefficients of sample and reference peptide were calculated based on the different amino acid sequences and considered in the concentration calculation. The analytical method used was Analytical UHPLC Method A. Peptide samples were prepared in solubility buffer system A or C and solubility was assessed as described in Methods.

[1] = ThT assay for the assessment of physical stability; format: physicochemical; settings: ThT buffer system A: 100 mM phosphate buffer pH 7.4; 3 mg/ml, 37° C.
Excerpt: Low physical stability of a peptide solution may lead to amyloid fibril formation, which is observed as well-ordered, thread-like macromolecular structures in the sample, which eventually may lead to gel formation. Thioflavin T (ThT) is widely used to visualize and quantify the presence of misfolded protein aggregates [Biancalana et al., Biochim. Biophys. Acta 2010, 1804(7), 1405]. […] Enzymol. 1999, 309, 274]. The time course for fibril formation often follows the characteristic shape of a sigmoidal curve and can be separated into three regions: a lag phase, a fast growth phase, and a plateau phase.
The typical fibril formation process starts with the lag phase in which the amount of partially folded peptide turned into fibrils is not significant enough to be detected. The lag-time corresponds to the time the critical mass of the nucleus is built. Afterwards, a drastic elongation phase follows, and fibril concentration increases rapidly.
Investigations were carried out to determine fibrillation tendencies under stress conditions by shaking at 37° C. within Fluoroskan Ascent FL or Fluoroskan Ascent.
For the tests in Fluoroskan Ascent (FL), 200 μl sample were placed into a 96-well mictrotiter plate PS, flat bottom, Greiner Fluotrac No. 655076. Plates were sealed with Scotch Tape (Qiagen). Samples were stressed by continuous cycles of 10 sec shaking at 960 rpm and 50 sec rest period at 37° C. The kinetic was monitored by measuring fluorescence intensity every 20 min.
Peptides were diluted in a buffer system to a final concentration of 3 mg/ml. 20 μl of a 10.1 mM ThT solution in H2O were added to 2 ml of peptide solution to receive a final concentration of 100 μM ThT. For each sample eight replicates were tested.
ThT buffer system A) 100 mM phosphate buffer pH 7.4
ThT buffer system B) 100 mM phosphate buffer pH 7.4, 2.7 mg/ml m-cresol
Lag time in hours (h) in Thioflavin T (ThT) assay of peptide samples was determined in ThT buffer system A as described in Methods.

[2] = target: human GLP-1 receptor (hGLP-1R) (Homo sapiens, UniProt P43220); assay: cAMP HTRF assay, HEK-293 cell line over-expressing human GLP-1 receptor; format: cell-based; settings: HEK-293, cAMP, 0% HSA
Method: Each vial contained 1.8 ml cells. The vials were slowly frozen to −80° C. in isopropanol, and then transferred in liquid nitrogen for storage.
Prior to their use, frozen cells were thawed quickly at 37° C. and washed (5 min at 900 rpm) with 20 ml cell buffer (1× HBSS; 20 mM HEPES, plus 0.1% HSA if indicated in Example conditions).
For measurement of cAMP generation, 5 μl cells (final 5000 cells/well) and 5 μl of test compound were added to a 384-well plate, followed by incubation for 30 min at room temperature.
The cAMP generated was determined using a kit from Cisbio Corp. based on HTRF (Homogenous Time Resolved Fluorescence). The cAMP assay was performed according to manufacturer's instructions (Cisbio).

[3] = Pharmacokinetic evaluation in rats; format: in vivo; settings: male, SD, rat, plasma
Method: Compounds were administered in a suitable buffer system, e.g. PBS buffer solution at pH7.4 or DPBS solution at concentrations of 0.05, 0.1, 0.5 or 1 mg/ml depending on dose, species and administration volume.
Male SD rats were dosed 0.25 mg/kg, 0.5 mg/kg or 1 mg/kg intravenously (i.v.) or subcutaneously (s.c.). Blood samples were collected after 0.08, 0.25, 0.5, 1, 2, 4, 8, 24, 32, and 48 h post i.v. application and 0.25, 0.5, 1, 2, 4, 8, 24, 32, and 48 h post s.c. application, respectively. Plasma samples were analyzed after protein precipitation via liquid chromatography mass spectrometry (LC/MS). PK parameters and half-life were calculated using Phoenix-WinNonlin 8.1 using a non-compartmental model and linear trapezoidal interpolation calculation.
Pharmacokinetic profiles were determined as described in Methods.

[4] = Chemical stability assessment (relative purity loss by UHPLC-UV); format: physicochemical; settings: Chemical stability buffer system A: 20 mM phosphate buffer pH 7.4
Method: Purity of a peptide batch was determined through UHPLC/MS prior to chemical stability measurement. The target concentration was […] pure compound. Solutions from solid samples were prepared in the following buffer systems with a concentration of ˜300 μM compound based on the previously determined % purity:
Chemical stability buffer system A) 20 mM phosphate buffer pH 7.4,
Chemical stability buffer system B) 8 mM phosphate buffer pH 7.4, 14 mg/ml propylene glycol, 5.5 mg/ml phenol
Chemical stability buffer system C) 100 mM phosphate buffer pH 7.4, 2.7 mg/ml m-cresol
Prepared solutions were filtered through […] pore size and filled into sterilized glass containers under laminar flow conditions.
Glass containers were stored for 28 days at 5 and 40° C. After this time, the samples were centrifuged for 15 min at 2500 RCF. Then 1.5 μl of the undiluted supernatant were analysed with UHPLC-UV.
The chemical stability was rated through the relative loss of purity calculated by the equation:
[(purity after 28 days at 5° C.)−(purity after 28 days at 40° C.)]/(purity after 28 days at 5° C.)]*100%
The purity is calculated as
[(peak area peptide)/(total peak area)]*100%
The analytical methods used were Analytical UHPLC Method B or C.
Peptide samples were prepared in Chemical stability buffer system A or B and stability was assessed as described in Methods.

human GLP-1 receptor (hGLP-1R), sequence (P43220 24-463): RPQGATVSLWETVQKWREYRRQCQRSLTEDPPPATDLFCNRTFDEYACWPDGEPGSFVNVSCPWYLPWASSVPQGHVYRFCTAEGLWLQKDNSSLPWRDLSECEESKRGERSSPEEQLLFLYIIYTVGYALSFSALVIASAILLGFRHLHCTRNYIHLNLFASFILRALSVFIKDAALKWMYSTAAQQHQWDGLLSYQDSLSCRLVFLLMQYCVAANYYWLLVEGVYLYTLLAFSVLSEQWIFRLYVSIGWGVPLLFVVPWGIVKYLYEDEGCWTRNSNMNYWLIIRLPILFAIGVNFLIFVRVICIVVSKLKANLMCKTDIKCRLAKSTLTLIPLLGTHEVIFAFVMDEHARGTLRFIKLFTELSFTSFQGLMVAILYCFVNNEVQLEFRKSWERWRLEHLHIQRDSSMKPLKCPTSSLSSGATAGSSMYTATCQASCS

| Structure (SMILES) | Soluble amount (physchem) [mg/mL] | solubility at 24 h (physchem) [µg/mL] | Increase in FI [1] | Lag time before increase [1] [h] | EC50 [2] [µM] | AUC(0-t) ([3]; iv, 0.25 mg/kg i.v.) [ng·h/mL] | Cmax ([3]; iv, 0.25 mg/kg i.v.) [ng/mL] | half-life ([3]; iv, 0.25 mg/kg i.v.) [h] | clearance ([3]; iv, 0.25 mg/kg i.v., read-out: CI (converted)) [mL/h/kg] | AUC(0-t) ([3]; sc, 0.5 mg/kg s.c.) [ng·h/mL] | Cmax ([3]; sc, 0.5 mg/kg s.c.) [ng/mL] | bioavailability ([3]; sc, 0.5 mg/kg s.c.) [%] | half-life ([3]; sc, 0.5 mg/kg s.c.) [h] | Relative purity loss over 28 days at 40° C. [4] [%] |
| --- | --- | --- | --- | --- | --- | --- | --- | --- | --- | --- | --- | --- | --- | --- |
| CC[C@H](C)[C@H](NC(=O)[C@H](CCCNC(=N)N)NC(=O)[C@H](CC(=O)O)NC(=O)[C@H](CCCCNC(=O)COCCOCCNC(=O)COCCOCCNC(=O)CC[C@H](NC(=O)CCCCCCCCCCCCCCCCC(=O)O)C(=O)O)NC(=O)C(C)(C)NC(=O)[C@@H](NC(=O)[C@H](CO)NC(=O)[C@H](CC(C)C)NC(=O)[C@H](CC(=O)O)NC(=O)[C@H](CO)NC(=O)[C@@H](NC(=O)[C@H](Cc1ccccc1)NC(=O)[C@@H](NC(=O)CNC(=O)[C@H](CCC(=O)O)NC(=O)C(C)(C)NC(=O)[C@@H](N)Cc1ccc(O)cc1)[C@@H](C)O)[C@@H](C)CC)[C@@H](C)CC)C(=O)N[C@@H](Cc1c[nH]cn1)C(=O)N[C@@H](CCC(N)=O)C(=O)NC(C)(C)C(=O)N[C@@H](CCC(=O)O)C(=O)N[C@@H](Cc1ccccc1)C(=O)N[C@H](C(=O)N[C@@H](CCC(=O)O)C(=O)N[C@@H](Cc1c[nH]c2ccccc12)C(=O)N[C@@H](CC(C)C)C(=O)N[C@@H](CC(C)C)C(=O)N[C@@H](C)C(=O)N[C@@H](CCC(N)=O)C(=O)NCC(=O)N1CCC[C@H]1C(=O)N[C@@H](CO)C(=O)N[C@@H](CO)C(=O)NCC(=O)N[C@@H](C)C(=O)N1CCC[C@H]1C(=O)N1CCC[C@H]1C(=O)N1CCC[C@H]1C(=O)N[C@@H](CO)C(N)=O)[C@@H](C)CC [SEQ ID NO: 4, H2N-Y-Aib-E-G-T-F-I-S-D-I-S-I-Aib-K[{AEEA}2-gGlu-C18OH]-D-R-I-H-Q-Aib-E-F-I-E-W-I-L-A-Q-G-P-S-S-G-A-P-P-P-S-NH2] (H-Y[Aib]EGTFISDLSI[Aib]K([AEEA-AEEA-γGlu-C18 diacid])DRIHQ[Aib]EFIEWLLAQGPSSGAPPPS-NH2) | >8.4 | > 9500 | no | >45 | > 0.01 | 50200 | 6890 | 12.3 | 4.68 | 44400 | 1270 | 52 | 16.5 |  |
| CC[C@H](C)[C@H](NC(=O)[C@H](CCCNC(=N)N)NC(=O)[C@H](CC(=O)O)NC(=O)[C@H](CCCCNC(=O)COCCOCCNC(=O)COCCOCCNC(=O)CC[C@H](NC(=O)CCCCCCCCCCCCCCCCCCC(=O)O)C(=O)O)NC(=O)C(C)(C)NC(=O)[C@@H](NC(=O)[C@H](CO)NC(=O)[C@H](CC(C)C)NC(=O)[C@H](CC(=O)O)NC(=O)[C@H](CO)NC(=O)[C@@H](NC(=O)[C@H](Cc1ccccc1)NC(=O)[C@@H](NC(=O)CNC(=O)[C@H](CCC(=O)O)NC(=O)C(C)(C)NC(=O)[C@@H](N)Cc1ccc(O)cc1)[C@@H](C)O)[C@@H](C)CC)[C@@H](C)CC)C(=O)N[C@@H](Cc1c[nH]cn1)C(=O)N[C@@H](CCC(N)=O)C(=O)NC(C)(C)C(=O)N[C@@H](CCC(=O)O)C(=O)N[C@@H](Cc1ccccc1)C(=O)N[C@H](C(=O)N[C@@H](CCC(=O)O)C(=O)N[C@@H](Cc1c[nH]c2ccccc12)C(=O)N[C@@H](CC(C)C)C(=O)N[C@@H](CC(C)C)C(=O)N[C@@H](C)C(=O)N[C@@H](CCC(N)=O)C(=O)NCC(=O)N1CCC[C@H]1C(=O)N[C@@H](CO)C(=O)N[C@@H](CO)C(=O)NCC(=O)N[C@@H](C)C(=O)N1CCC[C@H]1C(=O)N1CCC[C@H]1C(=O)N1CCC[C@H]1C(=O)N[C@@H](CO)C(N)=O)[C@@H](C)CC [SEQ ID NO: 7, H2N-Y-Aib-E-G-T-F-I-S-D-I-S-I-Aib-K[{AEEA}2-gGlu-C20OH]-D-R-I-H-Q-Aib-E-F-I-E-W-I-L-A-Q-G-P-S-S-G-A-P-P-P-S-NH2] (H-Y[Aib]EGTFISDLSI[Aib]K([AEEA-AEEA-γGlu-C20 diacid])DRIHQ[Aib]EFIEWLLAQGPSSGAPPPS-NH2) | >5.9 | > 6900 |  |  | > 0.01 |  |  |  |  |  |  |  |  | 4.5 |
| CC[C@H](C)[C@H](NC(=O)[C@H](Cc1ccccc1)NC(=O)[C@H](CCC(=O)O)NC(=O)[C@H](CCC(=O)O)NC(=O)[C@H](CCC(N)=O)NC(=O)[C@H](Cc1c[nH]cn1)NC(=O)[C@@H](NC(=O)[C@H](CCCNC(=N)N)NC(=O)[C@H](CC(=O)O)NC(=O)[C@H](CCCCNC(=O)COCCOCCNC(=O)COCCOCCNC(=O)CC[C@H](NC(=O)CCCCCCCCCCCCCCCCCCC(=O)O)C(=O)O)NC(=O)C(C)(C)NC(=O)[C@@H](NC(=O)[C@H](CO)NC(=O)[C@H](CC(C)C)NC(=O)[C@H](CC(=O)O)NC(=O)[C@H](CO)NC(=O)[C@@H](NC(=O)[C@H](Cc1ccccc1)NC(=O)[C@@H](NC(=O)CNC(=O)[C@H](CCC(=O)O)NC(=O)C(C)(C)NC(=O)[C@@H](N)Cc1ccc(O)cc1)[C@@H](C)O)[C@@H](C)CC)[C@@H](C)CC)[C@@H](C)CC)C(=O)N[C@@H](CCC(=O)O)C(=O)N[C@@H](Cc1c[nH]c2ccccc12)C(=O)N[C@@H](CC(C)C)C(=O)N[C@@H](CC(C)C)C(=O)N[C@@H](C)C(=O)N[C@@H](CCC(N)=O)C(=O)NCC(=O)N1CCC[C@H]1C(=O)N[C@@H](CO)C(=O)N[C@@H](CO)C(=O)NCC(=O)N[C@@H](C)C(=O)N1CCC[C@H]1C(=O)N1CCC[C@H]1C(=O)N1CCC[C@H]1C(=O)N[C@@H](CO)C(N)=O [SEQ ID NO: 10, H2N-Y-Aib-E-G-T-F-I-S-D-I-S-I-Aib-K[{AEEA}2-gGlu-C20OH]-DRIHQEEFIEWILAQGPSSGAPPPS-NH2] (H-Y[Aib]EGTFISDLSI[Aib]K([AEEA-AEEA-γGlu-C20 diacid])DRIHQEEFIEWLLAQGPSSGAPPPS-NH2) | >8.1 | > 8000 |  |  | > 0.01 |  |  |  |  |  |  |  |  | 3.3 |

Reference: patent publication US20230103631A1, “PEPTIDES AS SELECTIVE GIP RECEPTOR AGONISTS” (Sanofi, priority 2020, published 2023)
